Drawing on patent publication US11384099B2, “Pyrazolopyridinone compounds” (Janssen Pharmaceutica NV, priority 2017, dated 2022), this text covers IC50 and GI50 for twelve compounds.

SMILES strings stand for the structures. Where a name gives a salt, the structure may show the parent alone.

The target in assay [1] is T1, human FGFR3 wild type enzyme (cytoplasmic domain) (Homo sapiens, UniProt P22607).
T1 construct: human FGFR3 wild type enzyme (cytoplasmic domain, from Cama Biosciences); purchased Carna Biosciences
T1 sequence (P22607 397-806 limits assumed): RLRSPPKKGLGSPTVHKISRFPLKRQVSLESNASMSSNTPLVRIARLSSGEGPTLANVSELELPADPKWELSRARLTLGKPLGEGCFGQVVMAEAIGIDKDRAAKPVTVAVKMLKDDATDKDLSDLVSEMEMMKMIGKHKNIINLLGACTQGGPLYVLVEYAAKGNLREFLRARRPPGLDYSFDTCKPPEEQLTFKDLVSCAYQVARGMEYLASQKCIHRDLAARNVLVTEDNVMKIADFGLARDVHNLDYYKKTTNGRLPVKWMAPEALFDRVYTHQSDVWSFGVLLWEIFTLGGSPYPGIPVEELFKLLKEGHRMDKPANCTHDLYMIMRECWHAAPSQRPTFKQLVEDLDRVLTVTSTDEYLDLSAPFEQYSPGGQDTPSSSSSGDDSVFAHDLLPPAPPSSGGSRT
The experiment in a line: FGFR3 wild type mobility shift assay (enzymatic assay, Caliper). In kind it is biochemical. As to conditions: 75 μM ATP, 50 minutes at 30° C. Here is the method: FGFR3 Wild Type Mobility Shift Assay (Enzymatic Assay)
In a final reaction volume of 25 μL, 0.04 ng/μL human FGFR3 wild type enzyme (cytoplasmic domain, from Cama Biosciences) was incubated with 75 μM ATP, 1 μM FL-peptide 30 substrate and 250 nL of testing compound (1% DMSO final) in assay buffer (100 mM HEPES pH 7.4, 10 mM MgCl2, 0.003% Brij35, 1 mM DTT). After incubation for 50 minutes at 30° C. the reaction was stopped with 10 μL of 0.5M EDTA pH 8.0, and then L of reaction mixture was transferred to reading plate and measured on Caliper EZ reader II.

In assay [2] the test system is NIH/3T3 cells transfected with control vector (MOCK). The experiment in a line: NIH/3T3 mock cell proliferation assay (CTG, counter assay). The conditions noted are these: Mus musculus, NIH3T3; 72-hr incubation, CellTiter Glo; counter assay for general toxicity. In kind it is cell-based. On the procedure:
NIH/3T3 Mock Cell Proliferation Assay
(§1) In day 1, 90 μL of cell suspension (NIH/3T3 cells transfected with the same control vector as in the above two proliferation assays) (total 30,000 cells per well in growth medium (DMEM containing 1% Glutamax, 10% FBS and 1% Pen/Strep)) was seeded in a 96-well plate and then incubated overnight at 37° C. and 5% CO2. In day 2, 10 μL of growth medium containing 10-fold stock solution of testing compound was added into cell cultures (9 dose points with 3× serial dilution, starting with 30 μM, 0.3% DMSO final). After 72-hr incubation at 37° C. and 5% CO2, in day 5 a volume of 50 μL CellTiter Glo (CTG) reagent was added into cell-containing 96-well plate and the plate was incubated at room temperature for 10 minutes before RLUs (relative light unit) were measured on a microplate reader with luminescence detection module. The RLU value was normalized to survival % and concentration-response curve was plotted using Prism to calculate IC50 (M), pIC50 (−log IC50) and HillSlope value.

Assay [3] concerns the target T2, human FGFR3 V555M enzyme (cytoplasmic domain carrying V555M mutation) (Homo sapiens, UniProt P22607, V555M).
T2 construct: cytoplasmic domain carrying V555M mutation, from Carna Biosciences; purchased Carna Biosciences
The experiment in a line: FGFR3 V555M mobility shift assay (enzymatic assay, Caliper). Type of assay: biochemical. As to conditions: 30 μM ATP, 45 minutes at 30° C. On the procedure: FGFR3 V555M Mobility Shift Assay (Enzymatic Assay)
In a final reaction volume of 25 μL, 0.04 ng/μL human FGFR3 V555M enzyme (cytoplasmic domain carrying V555M mutation, from Carna Biosciences) was incubated with 30 μM ATP, 1 μM FL-peptide 30 substrate and 250 nL of testing compound (1% DMSO final) in assay buffer (100 mM HEPES pH 7.4, 10 mM MgCl2, 0.003% Brij35, 1 mM DTT). After incubation for 45 minutes at 30° C. the reaction was stopped with 10 μL of 0.5M EDTA pH 8.0, and then L of reaction mixture was transferred to reading plate and measured on Caliper EZ reader II.

For assay [4], the target named is T3, NIH/3T3 cells overexpressing FGFR3 WT-TACC3 fusion protein (Homo sapiens, UniProt P22607).
T3 construct: NIH/3T3 FGFR3 WT-TACC3 CTG (IC50); other: 72-hr incubation, CellTiter Glo; fused on or other part: C-terminal coiled-coil part of TACC3 (part of the key, as a fusion known from patients); Q9Y6A5 (Transforming acidic coiled-coil-containing protein 3)
T3 sequence (P22607 whole entry, change not shown, the tested form may be a part): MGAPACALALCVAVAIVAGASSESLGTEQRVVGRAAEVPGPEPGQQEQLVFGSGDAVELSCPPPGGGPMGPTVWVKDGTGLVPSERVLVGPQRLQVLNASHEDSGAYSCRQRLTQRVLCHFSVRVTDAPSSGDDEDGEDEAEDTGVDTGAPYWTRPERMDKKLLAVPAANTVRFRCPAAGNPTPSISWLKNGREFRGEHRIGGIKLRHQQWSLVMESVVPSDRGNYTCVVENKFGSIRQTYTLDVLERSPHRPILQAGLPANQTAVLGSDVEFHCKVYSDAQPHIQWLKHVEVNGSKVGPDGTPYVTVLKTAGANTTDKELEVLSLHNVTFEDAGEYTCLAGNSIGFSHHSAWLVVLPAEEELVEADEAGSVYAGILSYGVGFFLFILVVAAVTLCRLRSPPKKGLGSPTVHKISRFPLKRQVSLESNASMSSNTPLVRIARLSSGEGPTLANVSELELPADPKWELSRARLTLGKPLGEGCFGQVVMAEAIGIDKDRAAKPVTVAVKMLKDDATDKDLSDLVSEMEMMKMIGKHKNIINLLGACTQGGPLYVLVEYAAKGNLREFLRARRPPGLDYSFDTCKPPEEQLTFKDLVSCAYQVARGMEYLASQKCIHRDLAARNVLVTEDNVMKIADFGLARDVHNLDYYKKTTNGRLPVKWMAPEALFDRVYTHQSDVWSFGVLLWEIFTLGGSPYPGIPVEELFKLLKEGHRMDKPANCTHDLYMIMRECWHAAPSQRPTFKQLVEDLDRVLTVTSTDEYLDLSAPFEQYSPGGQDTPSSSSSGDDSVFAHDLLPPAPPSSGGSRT
The experiment in a line: NIH/3T3 FGFR3 WT-TACC3 cell proliferation assay (CTG). In kind it is cell-based. The conditions noted are these: 72-hr incubation, CellTiter Glo; read-out: NIH/3T3 FGFR3 WT-TACC3 CTG (IC50). Here is the method:
NIH/3T3 FGFR3 WT-TACC3 Cell Proliferation Assay
as §1, with “cells overexpressing FGFR3 WT-TACC3 fusion protein)” for “cells transfected with the same control vector as in the above two proliferation assays)”, “with 4×” for “with 3×”, “with 10” for “with 30”, “μM, 0.1%” for “μM, 0.3%”

T2 sequence (P22607 397-806 V555M limits assumed): as the sequence (P22607 397-806 limits assumed) above, with V159M counted along it

One may read the IC50 as the concentration that gives 50% inhibition. In the case of `C[C@H](Nc1c(-c2nc3ccc(F)cc3[nH]2)c(=O)[nH]c2cn(C)nc12)c1ncccn1` [Compound 28, (S)-6-(6-Fluoro-1H-benzo[d]imidazol-2-yl)-2-methyl-7-((1-(pyrimidin-2-yl)ethyl)amino)-2H-pyrazolo[4,3-b]pyridin-5 (4H)-one], the IC50 was 2.15 nM in assay [1], 2030 nM in assay [2] and 0.595 nM in assay [3]. For the same compound, in assay [4], the GI50 was determined as 23.3 nM.
In the same order, the values of `CCn1cc2[nH]c(=O)c(-c3nc4cc(OC)c(OC)cc4[nH]3)c(N[C@@H](C)c3ccccn3)c2n1` [Compound 51, (S)-6-(5,6-dimethoxy-1H-benzo[d]imidazol-2-yl)-2-ethyl-7-((1-(pyridin-2-yl)ethyl)-amino)-2,4-dihydro-5H-pyrazolo[4,3-b]pyridin-5-one] are 4.43 nM, 1130 nM, 0.613 nM and 30.2 nM.
`CCC(Nc1c(-c2nc3cc(OC)c(OC)cc3[nH]2)c(=O)[nH]c2cn(C)nc12)c1ncccn1` (single isomer, unassigned) [Compound 42, (S*)-6-(5,6-dimethoxy-1H-benzo[d]imidazol-2-yl)-2-methyl-7-((1-(pyrimidin-2-yl)-propyl)amino)-2H-pyrazolo[4,3-b]pyridin-5 (4H)-one]: the IC50 is 2.16 nM in assay [1], 591 nM in assay [2] and 0.407 nM in assay [3]. Besides, the GI50 in assay [4] is 12.5 nM.
Turning to `CCOc1ccc2nc(-c3c(N[C@@H](C)c4ncccn4)c4nn(CC)cc4[nH]c3=O)[nH]c2c1` [Compound 50, (S)-6-(6-ethoxy-1H-benzo[d]imidazol-2-yl)-2-ethyl-7-((1-(pyrimidin-2-yl)ethyl)amino)-2,4-dihydro-5H-pyrazolo[4,3-b]pyridin-5-one], the values for the IC50 in assay [1], in assay [2] and in assay [3] were 2.96 nM, 1100 nM and 0.576 nM, respectively.
As to `CCn1cc2[nH]c(=O)c(-c3nc4c(OC)cccc4[nH]3)c(N[C@@H](C)c3ncccn3)c2n1` [Compound 32, (S)-2-ethyl-6-(4-methoxy-1H-benzo[d]imidazol-2-yl)-7-((1-(pyrimidin-2-yl)ethyl)amino)-2H-pyrazolo[4,3-b]pyridin-5 (4H)-one], the IC50 in assay [1] worked out at 5.45 nM; in assay [2], 1490 nM; in assay [3] it was 2.03 nM.
For the compound `CC(C)[C@H](Nc1c(-c2nc3ncc(N(C)C)cc3[nH]2)c(=O)[nH]c2cn(C)nc12)c1ncccn1` (single isomer, unassigned) [Compound 23, (S*)-6-(6-(dimethylamino)-1H-imidazo[4,5-b]pyridin-2-yl)-2-methyl-7-((2-methyl-1-(pyrimidin-2-yl)propyl)amino)-2H-pyrazolo[4,3-b]pyridin-5 (4H)-one 0.14 formate], the half-maximal inhibitory concentration (IC50) in assay [1] is 3.52 nM; in assay [2], 943 nM; in assay [3] it was 0.401 nM.
On to `CCn1cc2[nH]c(=O)c(-c3nc4ccc(OCCOC)cc4[nH]3)c(N[C@@H](C)c3ncccn3)c2n1` [Compound 54, (S)-2-ethyl-6-(6-(2-methoxyethoxy)-1H-benzo[d]imidazol-2-yl)-7-((1-(pyrimidin-2-yl)-ethyl)amino)-2H-pyrazolo[4,3-b]pyridin-5 (4H)-one], for which the half-inhibitory concentration (IC50) in assay [1] was 1.64 nM; in assay [2], 689 nM; in assay [3] it was 0.562 nM.
For `COCCOc1cc2[nH]c(-c3c(NC(c4ncccn4)C(C)C)c4nn(C)cc4[nH]c3=O)nc2cc1OC` (single isomer, unassigned) [Compound 36, (S*)-6-(5-methoxy-6-(2-methoxyethoxy)-1H-benzo[d]imidazol-2-yl)-2-methyl-7-((2-methyl-1-(pyrimidin-2-yl)propyl)amino)-2H-pyrazolo[4,3-b]pyridin-5 (4H)-one] the same measures were 2.25 nM, 757 nM and 0.503 nM.
On to `COc1cc(F)c2nc(-c3c(N[C@@H](C)c4ncccn4)c4nn(C)cc4[nH]c3=O)[nH]c2c1` [Compound 2, (S)-6-(4-fluoro-6-methoxy-1H-benzo[d]imidazol-2-yl)-2-methyl-7-((1-(pyrimidin-2-yl)-ethyl)amino)-2H-pyrazolo[4,3-b]pyridin-5 (4H)-one], for which the IC50 turned out to be 2.88 nM in assay [1], 2380 nM in assay [2] and 0.791 nM in assay [3].
`CCn1cc2[nH]c(=O)c(-c3nc4cc(OC)c(OCCOC)cc4[nH]3)c(N[C@@H](C)c3ncccn3)c2n1` [Compound 38, (S)-2-ethyl-6-(5-methoxy-6-(2-methoxyethoxy)-1H-benzo[d]imidazol-2-yl)-7-((1-(pyrimidin-2-yl)ethyl)amino)-2H-pyrazolo[4,3-b]pyridin-5 (4H)-one]: the figures for the IC50 in assay [1], in assay [2] and in assay [3] were 0.98 nM, 532 nM and 0.568 nM, respectively. The GI50 in assay [4] was 18.4 nM.
In the same order, the values of `CCn1cc2[nH]c(=O)c(-c3nc4c(OC)cc(OC)cc4[nH]3)c(N[C@@H](C)c3ncccn3)c2n1` [Compound 31, (S)-6-(4,6-dimethoxy-1H-benzo[d]imidazol-2-yl)-2-ethyl-7-((1-(pyrimidin-2-yl)ethyl)-amino)-2H-pyrazolo[4,3-b]pyridin-5 (4H)-one] are 6.21 nM, 1940 nM, 1.78 nM and 34.4 nM.
For `CCOc1cc2[nH]c(-c3c(N[C@@H](C)c4ncccn4)c4nn(CC)cc4[nH]c3=O)nc2cc1OC` [Compound 8, (S)-6-(6-ethoxy-5-methoxy-1H-benzo[d]imidazol-2-yl)-2-ethyl-7-((1-(pyrimidin-2-yl)-ethyl)amino)-2H-pyrazolo[4,3-b]pyridin-5 (4H)-one], the IC50 is 1.15 nM in assay [1], 766 nM in assay [2] and 0.376 nM in assay [3].
